Data published in patent EP1457483A1, “Cationic lipids with serine backbone” (Ruhr-Universität Bochum, priority 2003, dated 2004).

System: COS-7 cells
Assay: Automated lipofection screening: GFP-luciferase reporter gene transfer (luciferase activity per protein content)
Type: cell-based, African green monkey
Conditions: for Maximum transfection efficiency, MW (mean value), Helper lipid: DOPE / Maximum transfection efficiency, MW (mean value), Helper lipid: CHOL / Maximum transfection efficiency, MW (mean value), Helper lipid: without: pEGFPLuc plasmid, point is thousands separator; for Maximum transfection efficiency, MW (mean value), Helper lipid: DOPE: cationic/helper lipid 1:0.5 with DOPE; for Maximum transfection efficiency, MW (mean value), Helper lipid: DOPE / Maximum transfection efficiency, MW (mean value), Helper lipid: CHOL: at the LDR giving the maximum; for Maximum transfection efficiency, MW (mean value), Helper lipid: CHOL: cationic/helper lipid 1:0.5 with cholesterol; for Maximum transfection efficiency, MW (mean value), Helper lipid: without: no helper lipid, at the LDR (1:1-15:1) giving the maximum
Protocol: Screening the combinatorial lipid library for lipofection properties: Goal of this first step was to compare transfection efficiency of these structurally related cationic lipids with systematically modified hydrocarbon chain compositions for the development of suitable lipofection reagents and protocols and to study the relationship between structure and transfection efficiency of this new class of cationic lipids for gene transfer. All lipids (MS-1 to MS-50, table 1) were tested using a standard protocol: From each lipid, twenty four different lipoplexes were formed containing either no helper lipid or the helper lipids DOPE and CHOL at molar amounts (1:0.5), respectively, using eight different lipid:DNA-charge ratios (LDR) from 1:1 - 15:1, resulting in a lipofection profile for each lipid. The COS-7 cell-line was used for this lipofection study since COS-7 is easy to transfect and differences between the lipids are easy to identify.
Cell culture: SV40 transformed African green monkey kidney cell line COS-7 (ATCC CRL-1651) was routinely passaged in DMEM (GIBCO BRL, Karlsruhe, Germany), respectively, supplemented with 1% L-glutamin solution (100x), 1% Penicillin/Streptomycin solution (100x) (GIBCO BRL, Karlsruhe, Germany), and 10% FCS (BioWhittaker, Verviers, Belgium) at 37°C with 5% CO2 in humidified atmosphere. For the screening cells were maintained in 96-well culture plates (Greiner, Frickenhausen, Germany) in 100 µl DMEM, 10 % FCS, 1 % Penicillin-streptomycin in a humidified atmosphere at 37 °C/5 % CO2. 24 h prior to transfection, the cells were seeded into the microtiter plate at 10,000 cells per well to reach a confluency of 50 % at the time of transfection. Dendritic cells: Dendritic cells (DC) were derived from highly purified circulating CD14(+) monocytes: In a first step, peripheral blood mononuclear leukocytes (PBL) from healthy control persons were isolated by Ficoll-Paque (Pharmacia Biotech AB, Uppsala, Sweden) density centrifugation. The following immunomagnetic purification of the monocytes from PBL was performed using CD14 Microbeads and MiniMACS high gradient magnetic separation columns (Miltenyi Biotech, Bergisch Gladbach, Germany) according to manufacturer's instructions. Isolated monocytes (5 x 10^5/well) were cultured in RPMI supplemented with 10 % FCS, or serum-free Macrophage-SFM medium (GIBCO BRL, Karlsruhe, Germany) supplemented with human recombinant GM-CSF (0.05µg/ml) and IL-4 (0.025µg/ml) (PromoCell, Heidelberg, Germany) in 6-well plates. Aliquots of the cells were reanalyzed by FACS with anti-CD14 mAbs (Pharmingen, San Diego, CA). After 5-6 days non-adherent cells were collected and purity of DCs was determined by FACS analysis using a FACSort flow cytometer (Becton Dickinson, Mountain View, CA) and the CellQuest software for data processing as recently described (Jantscheff, P. et al., J. Immunol. Methods 163(1):91-7 (1993)).

Structure (SMILES) | Maximum transfection efficiency, MW (mean value), Helper lipid: DOPE [RLU] | Maximum transfection efficiency, MW (mean value), Helper lipid: CHOL [RLU] | Maximum transfection efficiency, MW (mean value), Helper lipid: without [RLU] | times higher activity in only one of the helper lipid combinations (best combination against the other combinations)
CCCCCCCC/C=C\CCCCCCCCN(CCCCCCCC/C=C\CCCCCCCC)[C@@H](CO)C(=O)NCCCCCN [compound 20] | 26.482 | 67.308 | 31.897 | –
CCCCCCCCCCCCCCCC[N+](C)(CCCCCCCCCCCCCCCC)[C@@H](CO)C(=O)NCCCN [compound 33] | 201.586 | 372.446 | 49.603 | –
CCCCCCCCCCCCCC[N+](C)(CCCCCCCCCCCCCC)[C@@H](CO)C(=O)NCCCN [compound 32] | 225.268 | 447.443 | 2.075 | –
CCCCCCCCCCCCCCCCCCN(CCCCCCCCCCCCCCCCCC)[C@@H](CO)C(=O)NCCCCCCN [compound 24] | 21.009 | 20.328 | 920 | –
CCCCCCCCCCCCCCCCCCN(CCCCCCCCCCCCCCCCCC)[C@@H](CO)C(=O)NCCCN [compound 9] | 10.033 | 76.850 | 2.183 | –
CCCCCCCC/C=C\CCCCCCCCN(CCCCCCCC/C=C\CCCCCCCC)[C@@H](CO)C(=O)NCCN [compound 5] | 22.324 | 7.344 | 7.395 | –
CCCCCCCCCCCCCCCC[N+](C)(CCCCCCCCCCCCCCCC)[C@@H](CO)C(=O)NCCN [MS-28] | – | – | – | 2.5 - 11.5 times
CCCCCCCCCCCCCC[N+](C)(CCCCCCCCCCCCCC)[C@@H](CO)C(=O)NCCN [compound 27] | 196.400 | 311.891 | 21.934 | –
CCCCCCCCCCCCN(CCCCCCCCCCCC)[C@@H](CO)C(=O)NCCCCCN [compound 16] | 49.071 | 45.849 | 442 | –
CCCCCCCCCCCCN(CCCCCCCCCCCC)[C@@H](CO)C(=O)NCCCCCCN [compound 21] | 308.849 | 190.171 | 118.131 | –
CCCCCCCC/C=C\CCCCCCCC[N+](C)(CCCCCCCC/C=C\CCCCCCCC)[C@@H](CO)C(=O)NCCCCN [compound 40] | 48.692 | 119.285 | 12.263 | –
CCCCCCCCCCCCCCCC[N+](C)(CCCCCCCCCCCCCCCC)[C@@H](CO)C(=O)NCCN [compound 28] | 190.444 | 461.747 | 171.272 | –
CCCCCCCCCCCCN(CCCCCCCCCCCC)[C@@H](CO)C(=O)NCCN [compound 1] | 172.116 | 264.581 | 211.937 | –
CCCCCCCC/C=C\CCCCCCCCN(CCCCCCCC/C=C\CCCCCCCC)[C@@H](CO)C(=O)NCCCCCCN [compound 25] | 44.451 | 12.225 | 23.710 | –
CCCCCCCCCCCCCCCCCCN(CCCCCCCCCCCCCCCCCC)[C@@H](CO)C(=O)NCCN [compound 4] | 4.695 | 131.981 | 2.827 | –
CCCCCCCCCCCCCCN(CCCCCCCCCCCCCC)[C@@H](CO)C(=O)NCCCCN [compound 12] | 167.970 | 274.483 | 440.931 | –
CCCCCCCCCCCCN(CCCCCCCCCCCC)[C@@H](CO)C(=O)NCCCCN [compound 11] | 2.621 | 327 | 293 | –
CCCCCCCCCCCCCCCCCC[N+](C)(CCCCCCCCCCCCCCCCCC)[C@@H](CO)C(=O)NCCN [compound 29] | 24.095 | 137.404 | 43.875 | –
CCCCCCCCCCCCCCCCCCN(CCCCCCCCCCCCCCCCCC)[C@@H](CO)C(=O)NCCCCN [compound 14] | 11.715 | 42.270 | 1.956 | –
CCCCCCCCCCCCCCCCCC[N+](C)(CCCCCCCCCCCCCCCCCC)[C@@H](CO)C(=O)NCCCCCN [compound 44] | 1.712 | 28.104 | 3.542 | –
CCCCCCCC/C=C\CCCCCCCC[N+](C)(CCCCCCCC/C=C\CCCCCCCC)[C@@H](CO)C(=O)NCCCCCCN [compound 50] | 39.590 | 70.812 | 17.315 | –
CCCCCCCCCCCCCCCC[N+](C)(CCCCCCCCCCCCCCCC)[C@@H](CO)C(=O)NCCCCCN [compound 43] | 169.621 | 222.652 | 6.944 | –
